# “Also recorded” adds a separate entry of the source. Where a name gives a salt, the structure may show the parent alone. Read-outs that look alike come from different tables or passages of the source.
# Tests used:
# [1] = biological target: T1, Neutrophil Elastase (recombinant neutrophil elastase) (Homo sapiens, UniProt P08246); test: IC50 determination, spectrophotometric protease assay; format: biochemical
# T1 construct: purchased Enzo LifeSciences
# T1 sequence (P08246 30-267): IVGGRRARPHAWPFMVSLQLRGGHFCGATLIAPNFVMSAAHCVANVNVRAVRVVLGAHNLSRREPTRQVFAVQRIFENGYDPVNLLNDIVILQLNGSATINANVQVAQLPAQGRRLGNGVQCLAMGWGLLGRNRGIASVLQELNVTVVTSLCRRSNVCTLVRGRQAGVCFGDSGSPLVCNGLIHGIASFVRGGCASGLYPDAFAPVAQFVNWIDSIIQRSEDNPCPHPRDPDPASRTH
# In short: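 Chromogenic (pNA) or fluorogenic (AMC) substrate used at its Km; activity read for 30 min at 37°C, in duplicate. Compounds screened at 10, 1 and .1 μM, and those giving at least 50% inhibition at 10 μM were titrated. IC50 from a four-parameter logistic fit.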
# Thrombin = biological target: T2, Thrombin (Homo sapiens, UniProt P00734); test: Kinetic progress curves (kapp, K1, KI*, mechanism); format: biochemical; conditions: for Ki / Thrombin kapp: mean ± SD; for Thrombin kapp: apparent second-order rate constant from progress curves; for Thrombin mechanism of inhibition: defined by the progress curves: slow-binding (Rev.) or irreversible (Irrev.)
# T2 construct: purchased R&D
# Experimental: Because the compounds described in this paper were previously described as irreversible inhibitors, the IC50 value is inversely correlated with the second-order rate constant of inactivation. For a simple pseudo-first-order inactivation process, the activity after incubation with inhibitor (vi) varies with the inhibitor concentration (i), as described in the following equation: vi=v0·e^−kit where v0 is the activity in the absence of an inhibitor, k is the second-order rate constant of inactivation, and t is the time. The inactivation rate constant was determined from the time course of inhibition.
# Kinetic assays were performed in the following manner. The inhibitor was mixed with the substrate, and the buffer solution with the enzyme was added at the time zero. The progress curves show the release of pNA or AMC as a function of time. Initially, no inhibitor is bound to the enzyme, and the tangent to the progress curve (dA/dt) is proportional to the free enzyme concentration. The free enzyme concentration decreases over time due to inhibitor binding kinetics, as described above. Progress curves were recorded in pseudo-first-order conditions ([I]0>>[E]0) and with less than 10% conversion of the substrate during the entire time course. In these conditions, dA/dt decreases exponentially with time. The progress curves were fitted with the integrated rate equation with GraFit7 to yield a value for kobs, a pseudo-first-order rate constant. At=Ao+vs∙t+vi−vs∙1−e^−kobs∙t/kobs where At is the absorbance at time t, A0 is the absorbance at time zero, vi is the initial rate and vs is the velocity at the steady-state.
# The apparent second-order rate constant (kapp) was calculated from the slope of the linear part of the plot of kobs vs. the inhibitor concentration ([I]0). In the case of competition between the inhibitor and the substrate, kapp is smaller than the “real” second-order rate constant k discussed above because a certain fraction of the enzyme is present as an enzyme-substrate complex. kapp depends on the substrate concentration used in the experiment, as described by [Lambeir et al. (1996)].
# The apparent equilibrium constants were obtained from the following equations, vi/vo=1/1+I/K1; vS/vo=1/1+I/KI* where vi is the initial rate, vs is the steady-state velocity and vo is the uninhibited initial rate.
# [2] = tested on: proteases in human mast cell supernatants; test: Labeling of mast cell supernatants, functional proteomic profiling; conditions: 1 µM ABP, 10 µg total protein, two donors, IgE/DNP stimulated and non-stimulated
# Experimental: Peripheral blood mononuclear cells (PBMCs) were obtained from buffy coats (Etablissement Français du Sang). CD34^+ precursors cells were isolated from PBMCs (EasySep™ Human CD34 Positive Selection Kit, STEMCELL Technologies) and grown under serum-free conditions using StemSpanTM medium (STEMCELL Technologies) supplemented with recombinant human IL-6 (50 ng/ml; Peprotech), human IL-3 (10 ng/ml; Peprotech) and 3% supernatant of CHO transfectants secreting murine SCF (a gift from Dr. P. Dubreuil, Marseille, France, 3% correspond to ∼50 ng/ml SCF) for 1 week. Cells were next grown in IMDM Glutamax I, sodium pyruvate, 2-mercaptoethanol, .5% BSA, Insulin-transferrin selenium (all from Invitrogen), penicillin (100 U/ml), streptomycin (100 μg/ml) and 3% supernatant of CHO transfectants secreting murine SCF for 8 weeks then tested phenotypically (CD117+, FcεRI+) and functionally (β-hexosaminidase release in response to FcεRI crosslinking) before use for experiments. Only primary cell lines showing more than 95% CD117+/FcεRI+ cells were used for experiments.
# 1 × 10^5 mast cells were distributed in 50 µl Tyrode’s Buffer and adapted to 37°C for 30 min. Mast cells were next stimulated with DNP-BSA (200 ng/ml) after sensitization with 1 μg/ml of IgE anti DNP (Sigma-Aldrich) overnight. Supernatants were harvested and stored at −80°C. (β-hexosaminidase was assayed by measuring the release of p-nitrophenol from the substrate p-nitrophenyl N-acetyl-β-D-glucosaminide).
# Mast cell supernatants (10 µg of total protein) were labeled with 1 µM individual ABPs (46b, 52b, or 57b) in 50 mM Tris, 120 mM NaCl, .1 mg/ml BSA, 50 μg/ml heparin, pH 8 at 25°C (Sigma-Aldrich) in a final volume of 500 µL. […] The molecular weight of each band was determined with the Image Lab Software v5 (Bio-Rad) with Dual Color Protein Precision Plus Standard (10–250 kDa; Bio-Rad) as reference. […]
# [3] = Thrombin K1, apparent equilibrium constant of the first step of slow-binding
# [4] = Thrombin KI*, apparent equilibrium constant of the overall process
# [5] = read-out: Thrombin K1, apparent equilibrium constant of the first step of slow-binding
# [6] = read-out: Thrombin KI*, apparent equilibrium constant of the overall process
SMILES,IC50 [1] [µM],Ki (Thrombin; [3]) [µM],Ki (Thrombin; [4]) [µM],Thrombin kapp (Thrombin),Thrombin mechanism of inhibition (Thrombin),Ki (Thrombin; [5]) [µM],Ki (Thrombin; [6]) [µM],labeling of proteases in mast cell supernatants [2]
"C#CCCCOC(=O)NC(c1ccc(NC(=N)N)cc1)P(=O)(Oc1ccccc1)Oc1ccccc1.O=C(O)C(F)(F)F (centres unmarked) [37b, Pent-4-yn-1-yl ((diphenoxyphosphoryl)(4-guanidinophenyl)methyl)carbamate trifluoroacetate salt]",> 10,,,,,,,
C#CCCCOC(=O)NC(CCCNC(=N)N)P(=O)(Oc1ccccc1)Oc1ccccc1 (centres unmarked) [32b],> 10,22.6 ± 5,0.45 ± 0.03,64 ± 8 M⁻¹ s⁻¹,Rev.,,,
C#CCCCOC(=O)NC(Cc1ccc(NC(=N)N)cc1)P(=O)(Oc1ccccc1)Oc1ccccc1 (centres unmarked) [34b],> 10,134 ± 26,4.93 ± 0.51,17 ± 1 M⁻¹ s⁻¹,Rev.,,,
C#CCCCOC(=O)NC(Cc1ccc(NC(=N)N)cc1)P(=O)(Oc1ccc(NC(C)=O)cc1)Oc1ccc(NC(C)=O)cc1 (centres unmarked) [35b],> 10,32.7 ± 4,0.63 ± 0.04,128 ± 5 M⁻¹ s⁻¹,Rev.,,,
C#CCCCOC(=O)NC(C1CCN(C(=N)N)CC1)P(=O)(Oc1ccccc1)Oc1ccccc1 (centres unmarked) [41b],> 10,,,41 × 10^2 ± 38 M^−1 s^−1,irreversible inhibition; also recorded: Irrev,,,
C[C@@H]1NC(=O)N[C@@H]1CCCCCC(=O)NCCOCCOCCOCCn1cc(CCCOC(=O)NC(CCCNC(=N)N)P(=O)(Oc2ccccc2)Oc2ccccc2)nn1 (some centres unmarked) [45b],,,,19 ± 2 M⁻¹ s⁻¹,Rev.,9.97 ± 1,1.14 ± 0.11,
"C[C@@H]1NC(=O)N[C@@H]1CCCCCC(=O)NCCOCCOCCOCCn1cc(CCCOC(=O)NC(Cc2ccc(NC(=N)N)cc2)P(=O)(Oc2ccccc2)Oc2ccccc2)nn1 (stereo partly drawn) [50b, 3-(1-(18-((4R,5S)-5-methyl-2-oxoimidazolidin-4-yl)-13-oxo-3,6,9-trioxa-12-azaoctadecyl)-1H-1,2,3-triazol-4-yl)propyl (1-(diphenoxyphosphoryl)-2-(4-guanidinophenyl)ethyl)carbamate trifluoroacetate salt]",> 10,,1.55 ± 0.25,47 ± 5 M⁻¹ s⁻¹,Rev.,,,
C#CCCCOC(=O)NC(CCCNC(=N)N)P(=O)(Oc1ccc(Cl)cc1)Oc1ccc(Cl)cc1 (centres unmarked) [33b],,4.13 ± 0.7,0.28 ± 0.04,11 × 10^2 ± 42 M^−1 s^−1,reversible inhibition and Rev.,,,
CC(=O)Nc1ccc(OP(=O)(Oc2ccc(NC(C)=O)cc2)C(Cc2ccc(NC(=N)N)cc2)NC(=O)OCCCc2cn(CCOCCOCCOCCNC(=O)CCCCC[C@H]3NC(=O)N[C@H]3C)nn2)cc1 (some centres unmarked) [52b],> 10,,0.62 ± 0.08,49 ± 5 M⁻¹ s⁻¹,Rev.,,,
C#CCCCOC(=O)NC(Cc1ccc(NC(=N)N)cc1)P(=O)(Oc1ccc(Cl)cc1)Oc1ccc(Cl)cc1 (centres unmarked) [36b],> 10,9.03 ± 0.5,0.03 ± 0.002,251 ± 16 M⁻¹ s⁻¹,Rev.,,,
C[C@@H]1NC(=O)N[C@@H]1CCCCCC(=O)NCCOCCOCCOCCn1cc(CCCOC(=O)NC(CCCNC(=N)N)P(=O)(Oc2ccc(Cl)cc2)Oc2ccc(Cl)cc2)nn1 (some centres unmarked) [46b],,,,63 × 10^2 ± 290 M^−1 s^−1,Rev.,0.95 ± 0.2,0.07 ± 0.009,can label proteases in a complex proteome
C[C@@H]1NC(=O)N[C@@H]1CCCCCC(=O)NCCOCCOCCOCCn1cc(CCCOC(=O)NC(c2ccc(NC(=N)N)cc2)P(=O)(Oc2ccc(Cl)cc2)Oc2ccc(Cl)cc2)nn1 (some centres unmarked) [57b],,,,,,,,can label proteases in a complex proteome
C[C@@H]1NC(=O)N[C@@H]1CCCCCC(=O)NCCOCCOCCOCCn1cc(CCCOC(=O)NC(Cc2ccc(NC(=N)N)cc2)P(=O)(Oc2ccc(Cl)cc2)Oc2ccc(Cl)cc2)nn1 (some centres unmarked) [54b],> 10,,0.06 ± 0.006,,* ^d Rev.,,,can label proteases in a complex proteome; also recorded: best resolution
